In article PMC7948455, “Novel drug discovery platform for spinocerebellar ataxia, using fluorescence technology targeting β-III-spectrin” (The Journal of Biological Chemistry, 2020):
“Also recorded” adds a separate entry of the source.

How the values were obtained:
ABD L253P = target: T1, ABD L253P (Homo sapiens, UniProt O15020, L253P); assay: Sedimentation of ABD L253P without actin (aggregation); settings: for Effect on ABD pelleting without actin (aggregation): 10 μM Hit compound, n = 4
T1 construct: the β-III-spectrin (human) ABD residues 1 to 284; His-SUMO (cleaved yes); made in house; host or cells: E. coli BL21(DE3), vector pE-SUMOpro
T1 sequence (O15020 1-284 L253P): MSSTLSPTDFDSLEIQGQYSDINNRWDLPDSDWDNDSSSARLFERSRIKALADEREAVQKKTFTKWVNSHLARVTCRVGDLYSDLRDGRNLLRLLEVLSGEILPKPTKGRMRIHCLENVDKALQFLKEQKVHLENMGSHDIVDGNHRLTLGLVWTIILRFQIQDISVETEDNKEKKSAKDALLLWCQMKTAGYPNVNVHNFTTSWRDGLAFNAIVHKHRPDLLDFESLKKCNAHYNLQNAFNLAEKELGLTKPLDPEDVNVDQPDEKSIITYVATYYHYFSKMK
Procedure: In addition to a reduction in cell viability, the primary and counter screen may be sensitive to compounds that promote ABD-L253P protein aggregation. […] Our assay measuring ABD-L253P cosedimentation with actin is not sensitive to ABD aggregation, as it is designed to work under conditions where ∼90% ABD-L253P cosediments with actin. Nevertheless, we repeated these measurements in the absence of actin.
(§1) F-actin and ABD binding assays were performed as previously described ([10]). In brief, binding assays used 1 μM ABD protein, 1 μM F-actin, and 1 to 50 μM compound (as indicated) or DMSO control for a total reaction volume of 60 μl in F-buffer containing 10 mM Tris, pH 7.5, 150 mM NaCl, 0.5 mM ATP, 2 mM MgCl2, and 1 mM DTT. Following 30 min incubation at room temperature (21 °C). F-actin was pelleted using centrifugation at 100,000g at 25 °C for 30 min. Unbound ABD in the supernatant was measured following SDS-PAGE and Coomassie blue staining in accord ([10]). In addition, control cosedimentations assays that lacked actin were performed to test if compounds cause ABD aggregation. F-actin and Lifeact-mCherry binding assays were undertaken with 2 μM Lifeact-mCherry, 30 μM F-actin, and 1 to 50 μM compound (as indicated) or DMSO control for a total reaction volume of 80 μl in F-buffer. For a no-actin binding control, an assay sample with no F-actin was also set up. Binding reactions were allowed to reach equilibrium at room temperature (21 °C) for 30 min, and then F-actin was pelleted by centrifugation at 100,000g at 25 °C for 30 min. The amount of unbound Lifeact-mCherry was sampled by loading 7 μl of spin supernatant on a low-volume black bottom 384-well plate (Greiner). Amount of mCherry was determined by acquiring fluorescence spectrum peak intensity at ∼600 nm using a spectral unmixing plate reader (Fluorescence Innovations, Inc) equipped with a 532 nm laser (Laserglow Technologies, Ontario, Canada) for excitation, 532 nm long-pass filter for emission, and PMT for emission detection. The fraction of Lifeact-mCherry bound to F-actin was determined by subtracting from one the fraction of supernatant fluorescence intensity relative to the no-actin control sample:(3) Lifeactboundfraction=1−Fcompound/DMSO/FNo−actin where Fcontrol/DMSO is the peak mCherry fluorescence of assay samples containing compound or DMSO control, and Fno-actin is the peak mCherry fluorescence of assay samples that contained no F-actin.

[1] = target: T2, ABD-L253P binding to actin (Homo sapiens, UniProt O15020, L253P); assay: F-actin and ABD cosedimentation assay; settings: for Effect on ABD-L253P to actin cosedimentation: 10 μM Hit compound
T2 construct: the β-III-spectrin (human) ABD residues 1 to 284; His-SUMO (cleaved yes); made in house; host or cells: E. coli BL21(DE3), vector pE-SUMOpro; actin from rabbit psoas muscle tissue
T2 sequence (O15020 1-284 L253P): as above
Procedure: (§2) Actin was purified from acetone powder derived from the psoas muscle of New Zealand white rabbit (Oryctolagus cuniculus) ([46]). Filamentous (F)-actin was stored for up to 3 days on ice before use in binding assays. Within an hour of the binding assay, the F-actin was clarified at 100,000g at 4 °C for 10 min prior to setting up binding assays. The L253P β-III-spectrin ABD was expressed in E. coli BL21(DE3) (Novagen). The ABD was purified and the His-SUMO tag proteolytically removed, as previously described ([14]), except size-exclusion chromatography was not performed due to the high purity of the ABD protein. Lifeact-mCherry protein was similarly prepared. A Bradford assay was performed to determine clarified F-actin and ABD protein concentrations.
as §1

[2] = target: T3, Lifeact-mCherry binding to actin (Oryctolagus cuniculus, UniProt P68135); assay: F-actin and Lifeact-mCherry cosedimentation assay
T3 construct: from tissue; host or cells: actin: rabbit psoas muscle; Lifeact-mCherry: made in house in E. coli (pE-SUMOpro)
Procedure: as §2, §1

[3] = test system: GFP-ABD-L253P to mCherry nonspecific FRET; assay: Counter-screen FRET assay (GFP-ABD-L253P + mCherry, nonspecific FRET) in HEK293-6E cells; format: cell-based
Excerpt: With a constant amount of GFP-ABD-L253P expressed, increased Lifeact-mCherry expression increases FRET with an exponential plateau to 0.12 (Fig. 2A). To measure the nonspecific component of our FRET readout, we concurrently tested expression of mCherry in place of Lifeact-mCherry. For comparison, the Lifeact-mCherry and mCherry fluorescence intensity values (normalized to 1:1 GFP-ABD:Lifeact-mCherry sample) are plotted on the X-axis for samples transfected with different donor-to-acceptor DNA ratios. […] With the trade-off between high FRET and minimal nonspecific FRET, the donor:acceptor ratio 1:2 was chosen for the experiments that followed (Fig. 2A). […]
At 2 × 10^6 cells/ml, HEK293-6E cells were transfected with GFP-ABD-L253P or GFP-ABD-WT (2.4 μg), Lifeact-mCherry (2.4–16.8 μg), mCherry (1.2–16.8 μg), and/or pTT5 (0.8–17.6 μg), as indicated, using the 293fectin protocol (Thermo Fisher Scientific) with 20 μg total DNA. […] Cell viability and concentration were determined using trypan blue assay and a Countess cell counter (Invitrogen). […]
Time-resolved fluorescence waveforms for each well were fitted based on a one-exponential decay function using least-squares minimization global-analysis software, as detailed previously ([32]). […]

| Compound | Effect on ABD pelleting without actin (aggregation) (ABD L253P) | Effect on ABD-L253P to actin cosedimentation [1] | Effect on actin-Lifeact cosedimentation ([2]; 10 μM Hit compound) | Effect of Hit compound on counter-screen FRET ([3]; dose response, GFP-ABD-L253P:mCherry 1:2 and 1:4) | Effect on counter-screen FRET readout ([3]; swinholide A 3 μM, tegaserod 50 μM, relative to DMSO) | Effect on Lifeact-mCherry cosedimentation with actin ([2]; 3 μM swinholide A, 50 μM tegaserod) | Effect on ABD sedimentation without actin (ABD L253P; 1.6 μM swinholide A) | Effect on ABD-L253P cosedimentation with actin ([1]; 3 μM swinholide A, 50 μM tegaserod, n = 4) |
| --- | --- | --- | --- | --- | --- | --- | --- | --- |
| CC(C)(C)c1ccc(/C=C/C(=O)Nc2ccc3c(c2)OCCO3)cc1 [AMG 9810] | do not significantly alter | do not significantly alter | – | – | – | – | – | – |
| O=C(O)c1cc([N+](=O)[O-])ccc1NCCCc1ccccc1 [NPPB] | do not significantly alter | do not significantly alter | decreased | – | – | – | – | – |
| CCOc1nc2cccc(C(=O)O)c2n1Cc1ccc(-c2ccccc2-c2nnn[nH]2)cc1 [candesartan] | trend toward increasing; also recorded: do not significantly alter | do not significantly alter | – | – | – | – | – | – |
| CCCCCCCC/C=C\CCCCCCCC(=O)NCc1ccc(O)c(OC)c1 [olvanil] | do not significantly alter | do not significantly alter | – | no significant effect | – | – | – | – |
| CO[C@H]1C[C@H](CC[C@H](C)[C@H](O)[C@H](C)[C@H]2OC(=O)/C=C/C(C)=C/C[C@H](O)C[C@@H]3C=CC[C@@H](C[C@H](OC)[C@@H](C)[C@@H](O)C[C@@H](O)[C@H](C)[C@@H]([C@@H](C)[C@@H](O)[C@@H](C)CC[C@H]4C[C@H](OC)C[C@H](C)O4)OC(=O)/C=C/C(C)=C/C[C@H](O)C[C@@H]4C=CC[C@@H](C[C@H](OC)[C@@H](C)[C@@H](O)C[C@@H](O)[C@@H]2C)O4)O3)O[C@@H](C)C1 [swinholide A] | – | – | – | – | did not significantly alter | reduces | did not induce | ablation |
